Experimental findings from patent US10131653B2, “Heterocyclic compound” (TAKEDA PHARMACEUTICAL COMPANY LIMITED, priority 2015, dated 2018) are described below.

Read-outs that look alike come from different tables or passages of the source.

One test deals with T1, human OX1 receptor (Homo sapiens, UniProt O43613).
T1 construct: expressed in transfected cells; host or cells: CHO cells
T1 sequence (O43613 1-425): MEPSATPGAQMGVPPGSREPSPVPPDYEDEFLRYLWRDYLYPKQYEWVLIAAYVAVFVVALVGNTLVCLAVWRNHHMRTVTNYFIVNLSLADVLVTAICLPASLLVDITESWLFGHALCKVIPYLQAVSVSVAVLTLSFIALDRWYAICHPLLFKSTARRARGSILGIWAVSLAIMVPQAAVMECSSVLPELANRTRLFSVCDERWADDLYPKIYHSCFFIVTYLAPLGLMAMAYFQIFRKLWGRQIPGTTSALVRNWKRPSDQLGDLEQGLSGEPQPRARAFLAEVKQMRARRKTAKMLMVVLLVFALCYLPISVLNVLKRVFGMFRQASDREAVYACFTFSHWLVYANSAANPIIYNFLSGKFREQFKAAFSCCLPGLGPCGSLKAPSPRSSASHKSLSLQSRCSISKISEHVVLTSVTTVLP
The test is described as follows: Measurement of orexin receptor antagonistic activity (calcium fluorescence, FLIPRtetra). It counts as cell-based. Particulars: CHO, read-out: Human Orexin1 receptor inhibition (at 10 μM). In a few lines:
(§1)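 Calcium fluorescence measured by FLIPRtetra every second for 2 min after orexin-A challenge, 1 nM final for OX1 and 0.3 nM final for OX2. Receptor-expressing CHO cells received compound in HEPES-buffered HBSS with 0.1% BSA just before agonist.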

The next test addresses T2, human OX2 receptor (Homo sapiens, UniProt O43614).
T2 construct: expressed in transfected cells; host or cells: CHO cells
T2 sequence (O43614 1-444): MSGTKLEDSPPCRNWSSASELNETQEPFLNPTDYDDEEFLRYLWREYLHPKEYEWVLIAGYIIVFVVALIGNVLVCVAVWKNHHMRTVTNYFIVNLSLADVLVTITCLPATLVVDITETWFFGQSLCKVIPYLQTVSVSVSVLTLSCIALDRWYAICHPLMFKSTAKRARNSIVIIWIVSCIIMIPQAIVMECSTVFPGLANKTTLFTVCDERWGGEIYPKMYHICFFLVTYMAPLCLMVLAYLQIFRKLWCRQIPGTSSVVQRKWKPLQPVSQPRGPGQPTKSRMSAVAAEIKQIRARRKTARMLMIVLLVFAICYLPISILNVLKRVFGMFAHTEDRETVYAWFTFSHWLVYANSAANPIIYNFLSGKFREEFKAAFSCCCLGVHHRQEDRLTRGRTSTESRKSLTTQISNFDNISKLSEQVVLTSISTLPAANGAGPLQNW
The description is as above. It counts as cell-based. Particulars: CHO, read-out: Human Orexin2 receptor inhibition (at 10 μM). In outline:
as §1

Setting [1] is: 10 μM test compound, CHO cells expressing human OX1 receptor, OX-A 1 nM.
Setting [2] is: 10 μM test compound, CHO cells expressing human OX2 receptor, OX-A 0.3 nM.

The inhibition is the change of the read-out against control, counted positive when it falls. Turning to `Cc1cc(N2CCN(C(=O)c3cc(F)c(F)cc3-c3ncccn3)[C@H](C)CO2)nc(C)n1` [Example 231, (4,5-difluoro-2-(pyrimidin-2-yl)phenyl)((6R)-2-(2,6-dimethylpyrimidin-4-yl)-6-methyl-1,2,5-oxadiazepan-5-yl)methanone], the results for the inhibition at 10 µM at human OX1 receptor (setting [1]) and on human OX2 receptor (setting [2]) were 38% and 103%, respectively.
The corresponding values for `Cc1nccc(N2CCN(C(=O)c3cc(Cl)ccc3-c3ncccn3)[C@H](C)CO2)n1` [Example 229, (5-chloro-2-(pyrimidin-2-yl)phenyl)((6R)-6-methyl-2-(2-methylpyrimidin-4-yl)-1,2,5-oxadiazepan-5-yl)methanone] are 40% and 101%.
As to `Cc1cc(N2CCN(C(=O)c3cc(Cl)ccc3-n3nccn3)[C@H](C)CO2)nc(C)n1` [Example 194, (5-chloro-2-(2H-1,2,3-triazol-2-yl)phenyl)((6R)-2-(2,6-dimethylpyrimidin-4-yl)-6-methyl-1,2,5-oxadiazepan-5-yl)methanone], the results for the inhibition at 10 µM at human OX1 receptor (setting [1]) and at human OX2 receptor (setting [2]) were 66% and 100%, respectively.
The matching figures for `Cc1ccc(-n2nccn2)c(C(=O)N2CCN(c3cc(C(F)(F)F)ccn3)OC[C@H]2C)c1` [Example 127, (5-methyl-2-(2H-1,2,3-triazol-2-yl)phenyl) ((6R)-6-methyl-2-(4-(trifluoromethyl)pyridin-2-yl)-1,2,5-oxadiazepan-5-yl)methanone]: 66% and 86%.
As to `Cc1cc(N2CCN(C(=O)c3ccccc3-n3nccn3)[C@@H](C)CO2)nc(C)n1` [Example 170, ((6S)-2-(2,6-dimethylpyrimidin-4-yl)-6-methyl-1,2,5-oxadiazepan-5-yl)(2-(2H-1,2,3-triazol-2-yl)phenyl)methanone], the inhibition at 10 µM on human OX1 receptor (setting [1]) came out at 20%; on human OX2 receptor (setting [2]) it was 100%.
As to `CC[C@@H]1CON(c2cc(C)nc(C)n2)CCN1C(=O)c1ccccc1-n1nccn1` [Example 168, ((6R)-2-(2,6-dimethylpyrimidin-4-yl)-6-ethyl-1,2,5-oxadiazepan-5-yl)(2-(2H-1,2,3-triazol-2-yl)phenyl)methanone], the inhibition at 10 µM came to 95% on human OX1 receptor (setting [1]) and 99% at human OX2 receptor (setting [2]).
`Cc1ccnc(N2CCN(C(=O)c3cc(C)ccc3-n3nccn3)[C@H](C)CO2)c1` [Example 125, ((6R)-6-methyl-2-(4-methylpyridin-2-yl)-1,2,5-oxadiazepan-5-yl) (5-methyl-2-(2H-1,2,3-triazol-2-yl)phenyl)methanone]: the inhibition at 10 µM at human OX1 receptor (setting [1]) turned out to be 68%; at human OX2 receptor (setting [2]) it was 98%.
The matching figures for `Cc1cc(N2CCN(C(=O)c3c(C)cccc3-c3ncccn3)CCO2)nc(C)n1` [Example 216, (2-(2,6-dimethylpyrimidin-4-yl)-1,2,5-oxadiazepan-5-yl)(2-methyl-6-(pyrimidin-2-yl)phenyl)methanone]: 59% and 101%.
`Cc1cc(N2C[C@H](C)N(C(=O)c3ccccc3-n3nccn3)[C@H](C)CO2)ncn1` [Example 174, ((4S,6R)-4,6-dimethyl-2-(6-methylpyrimidin-4-yl)-1,2,5-oxadiazepan-5-yl) (2-(2H-1,2,3-triazol-2-yl)phenyl)methanone]: the inhibition at 10 µM at human OX1 receptor (setting [1]) amounted to 95%; on human OX2 receptor (setting [2]), 98%.
On to `Cc1cc(N2OCCN(C(=O)c3ccccc3-n3nccn3)CC2C)nc(C)n1` (stereo not shown) [Example 188, (2-(2,6-dimethylpyrimidin-4-yl)-3-methyl-1,2,5-oxadiazepan-5-yl)(2-(2H-1,2,3-triazol-2-yl)phenyl)methanone], for which the inhibition at 10 µM at human OX1 receptor (setting [1]) stood at 13%; at human OX2 receptor (setting [2]), 29%.
For `Cc1ccc(-n2nccn2)c(C(=O)N2CCN(c3cncc(Cl)c3)OC[C@H]2C)c1` [Example 133, ((6R)-2-(5-chloropyridin-3-yl)-6-methyl-1,2,5-oxadiazepan-5-yl) (5-methyl-2-(2H-1,2,3-triazol-2-yl)phenyl)methanone], the inhibition at 10 µM was determined as 11% at human OX1 receptor and 70% at human OX2 receptor.
For `Cc1cc(N2CCN(C(=O)c3cccc(F)c3-c3ncccn3)C[C@H](C)O2)nc(C)n1` [Example 220, ((7S)-2-(2,6-dimethylpyrimidin-4-yl)-7-methyl-1,2,5-oxadiazepan-5-yl)(3-fluoro-2-(pyrimidin-2-yl)phenyl)methanone], the inhibition at 10 µM was determined as 15% on human OX1 receptor (setting [1]) and 101% on human OX2 receptor (setting [2]).
In the case of `Cc1cc(N2CCN(C(=O)c3ccc(F)cc3-c3ncccn3)C[C@H](C)O2)nc(C)n1` [Example 218, ((7S)-2-(2,6-dimethylpyrimidin-4-yl)-7-methyl-1,2,5-oxadiazepan-5-yl)(4-fluoro-2-(pyrimidin-2-yl)phenyl)methanone], the results for the inhibition at 10 µM on human OX1 receptor (setting [1]) and on human OX2 receptor (setting [2]) were 91% and 101%, respectively.
Turning to `Cc1cncc(N2CCN(C(=O)c3cc(C)ccc3-n3nccn3)[C@H](C)CO2)c1` [Example 131, ((6R)-6-methyl-2-(5-methylpyridin-3-yl)-1,2,5-oxadiazepan-5-yl) (5-methyl-2-(2H-1,2,3-triazol-2-yl)phenyl)methanone], the results for the inhibition at 10 µM on human OX1 receptor and on human OX2 receptor were -7% and 38%, respectively.
`Cc1ccc(-n2nccn2)c(C(=O)N2CCN(c3ncccc3Cl)OC[C@H]2C)c1` [Example 122, ((6R)-2-(3-chloropyridin-2-yl)-6-methyl-1,2,5-oxadiazepan-5-yl) (5-methyl-2-(2H-1,2,3-triazol-2-yl)phenyl)methanone]: the inhibition at 10 µM stood at 11% on human OX1 receptor (setting [1]) and 69% at human OX2 receptor (setting [2]).
As for `Cc1csc(N2CCN(C(=O)c3cc(F)ccc3-n3nccn3)[C@H](C)CO2)n1` [Example 164, (5-fluoro-2-(2H-1,2,3-triazol-2-yl)phenyl)((6R)-6-methyl-2-(4-methyl-1,3-thiazol-2-yl)-1,2,5-oxadiazepan-5-yl)methanone], the inhibition at 10 µM on human OX1 receptor (setting [1]) turned out to be 8%; on human OX2 receptor (setting [2]) it was 43%.
The matching figures for `Cc1cc(N2CCN(C(=O)c3ccccc3-n3ncnn3)CCO2)nc(C)n1` [Example 31, (2-(2,6-dimethyl-pyrimidin-4-yl)-1,2,5-oxadiazepan-5-yl) (2-(2H-tetrazol-2-yl)phenyl) methanone]: -2% and 100%.
Consider `Cc1cc(C)nc(N2CCN(C(=O)c3cccc4c3ccn4C)CCO2)n1` [Example 72, (2-(4,6-dimethylpyrimidin-2-yl)-1,2,5-oxadiazepan-5-yl) (1-methyl-1H-indol-4-yl) methanone], for which the inhibition at 10 µM on human OX1 receptor (setting [1]) came out at 34%; on human OX2 receptor (setting [2]) it was 94%.
On to `Cc1ccc(-n2nccn2)c(C(=O)N2CCN(c3cc(C#N)ccn3)OC[C@H]2C)c1` [Example 136, 2-((6R)-6-methyl-5-(5-methyl-2-(2H-1,2,3-triazol-2-yl)benzoyl)-1,2,5-oxadiazepan-2-yl)isonicotinonitrile], for which the inhibition at 10 µM on human OX1 receptor (setting [1]) worked out at 36%; at human OX2 receptor (setting [2]), 95%.
For the compound `Cc1cc(C)nc(N2CCN(C(=O)c3cccc4c3C(=O)N(C)C4)CCO2)n1` [Example 76, 7-((2-(4,6-dimethylpyrimidin-2-yl)-1,2,5-oxadiazepan-5-yl)carbonyl)-2-methylisoindolin-1-one], the results for the inhibition at 10 µM at human OX1 receptor and at human OX2 receptor were 6% and 22%, respectively.
Turning to `COc1cccnc1N1CCN(C(=O)c2cc(C)ccc2-n2nccn2)[C@H](C)CO1` [Example 123, ((6R)-2-(3-methoxypyridin-2-yl)-6-methyl-1,2,5-oxadiazepan-5-yl) (5-methyl-2-(2H-1,2,3-triazol-2-yl)phenyl)methanone], the inhibition at 10 µM was found to be 23% at human OX1 receptor (setting [1]) and 74% at human OX2 receptor (setting [2]).
On to `Cc1ccc(-n2nccn2)c(C(=O)N2CCN(c3cc(C)nc(C)n3)OC[C@H]2C)c1` [Example 6, ((6R)-2-(2,6-dimethylpyrimidin-4-yl)-6-methyl-1,2,5-oxadiazepan-5-yl)(5-methyl-2-(2H-1,2,3-triazol-2-yl)phenyl)methanone], for which the inhibition at 10 µM at human OX1 receptor (setting [1]) came to 88%; at human OX2 receptor (setting [2]) it was 96%.
The corresponding values for `Cc1cc(N2CCN(C(=O)c3cc(Cl)ccc3-c3ncccn3)C[C@H](C)O2)nc(C)n1` [Example 197, (5-chloro-2-(pyrimidin-2-yl)phenyl)((7S)-2-(2,6-dimethylpyrimidin-4-yl)-7-methyl-1,2,5-oxadiazepan-5-yl)methanone] are 96% and 102%.
